Measured values as given in patent US20160175351A1, “CANCER TREATMENT” (DUKE UNIVERSITY, priority 2013, published 2016).
Where a SMILES comes first, the peptide text is derived from it. The star is where a group is joined. Cbz = O=C(OCc1ccccc1)*; CHN2 = [N-]=[N+]=C*; tBu = CC(C)(C)*

Tests used:
[1] = tested on: Ctr1 ectodomain cleavage in wild type mouse embryonic fibroblasts; assay: Ctr1 ectodomain cleavage, anti-Ctr1 immunoblot of wild type MEFs (FIG. 4); assay type: cell-based; conditions: E64d 10 μM, harvested 16 hours later
Text: (§1) FIG. 4 is an immunoblot of protein extracts from wild-type MEFs (lanes 1-4) and Cathepsin L^−/− MEFs (lanes 5-8) with an anti-Ctr1 antibody and an anti-tubulin antibody. Lanes 1 and 2 are duplicate samples from untreated wild type MEFs. Lanes 3 and 4 are duplicate samples from wild-type MEFs treated with the Cathepsin L inhibitor E64d. Lanes 5 and 6 are duplicate samples from untreated Cathepsin L^−/− MEFs. Lanes 7 and 8 are duplicate samples from Cathepsin L^−/− MEFs treated with the Cathepsin L inhibitor E64d.
(§2) Mouse embryonic fibroblasts from wild type and CatL^−/− littermates were cultured in medium supplemented with 10% fetal bovine serum and treated with DMSO or […] of the cell permeable cysteine protease inhibitor E64d and harvested 16 hours later. Total proteins were isolated from the cells by homogenizing cells in ice cold PBS supplemented with 1% Triton-X, 0.1% SDS, and 1 mM EDTA. Cell debris was removed by centrifugation and the total amounts of soluble proteins were quantified in each sample. Equal amounts of proteins were separated on Tris/glycine gradient gel, transferred to nitrocellulose membrane and blocked with 5% non-fat milk in Tris buffered saline supplemented with 0.05% Tween (TBST) for 1 h. Membranes were incubated with anti-Ctr1 antibody (1:1000) followed by anti-rabbit-HRP coupled antibody (1:5000) and bands detected by enhanced chemiluminescent substrate. […]

[2] = tested on: Ctr1 ectodomain cleavage in Cathepsin L-/- mouse embryonic fibroblasts; assay: Ctr1 ectodomain cleavage, anti-Ctr1 immunoblot of Cathepsin L-/- MEFs (FIG. 4); assay type: cell-based
Text: as §1, §2

papain = biological target: T1, papain (Carica papaya, UniProt P00784); conditions: known from literature (McGowan 1989; Barrett 1982); cited from earlier work
T1 sequence (P00784 134-345): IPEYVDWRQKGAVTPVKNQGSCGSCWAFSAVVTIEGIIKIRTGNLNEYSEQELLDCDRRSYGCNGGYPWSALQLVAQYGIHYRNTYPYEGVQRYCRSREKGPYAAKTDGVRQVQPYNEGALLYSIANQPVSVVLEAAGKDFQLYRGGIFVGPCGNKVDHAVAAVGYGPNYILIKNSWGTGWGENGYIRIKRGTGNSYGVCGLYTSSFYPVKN

cathepsin L = cathepsin L (Homo sapiens, UniProt P07711); conditions: known from literature (McGowan 1989; Barrett 1982); cited from earlier work
cathepsin B = cathepsin B (Homo sapiens, UniProt P07858); conditions: known from literature (McGowan 1989; Barrett 1982); cited from earlier work
cathepsin H = biological target: T2, cathepsin H (Homo sapiens, UniProt P09668); conditions: known from literature (McGowan 1989; Barrett 1982); cited from earlier work
T2 sequence (P09668 98-335): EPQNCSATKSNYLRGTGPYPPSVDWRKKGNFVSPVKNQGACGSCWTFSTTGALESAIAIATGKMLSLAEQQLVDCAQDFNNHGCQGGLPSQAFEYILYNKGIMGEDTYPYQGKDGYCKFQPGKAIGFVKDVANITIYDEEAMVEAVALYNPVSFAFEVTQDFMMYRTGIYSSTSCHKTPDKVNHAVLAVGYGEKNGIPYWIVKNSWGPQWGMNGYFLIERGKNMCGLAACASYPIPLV

calpain = conditions: known from literature (McGowan 1989; Barrett 1982); cited from earlier work
[3] = tested on: Ctr1-/- MEFs expressing Ctr1^P25A; assay: Cisplatin uptake/accumulation by ICP-MS in MEFs expressing Ctr1 P25A (FIG. 6); assay type: cell-based, mouse; conditions: inhibitor 10 μM over night, then cisplatin 200 μM for 2 h
Text: (§3) FIG. 6 is a graph showing platinum accumulation in Ctr1 knockout MEFs (Ctr1^−/−), wild-type MEFs (Ctr1), or MEFs expressing Ctr1 with a Pro25Ala mutation (Ctr1^P25A). Each of the above were either untreated (1, 2 and 3), or treated with the Cathepsin L inhibitor Z-FY(tBu)-DMK (4, 5 and 6).
(§4) Mouse embryonic fibroblasts from Ctr1^−/− embryos were stably transfected with the human Ctr1 and the human Ctr1 containing the proline to alanine mutation at position 25 (Ctr1^P25A). […] Cells were rinsed in three times with ice cold PBS before the cells were scraped and divided into two tubes; one for measuring metal concentration and one for protein quantification. […] Platinum concentrations in the digested samples were measured by inductively coupled plasma mass spectrometry ([…]) and normalized to the total amount of protein in the sample.
(§5) Mouse Ctr1^−/− MEFs were transfected with vector alone (Ctr1^−/−), the expression vector expressing wild type Ctr1 (Ctr1) or the Ctr1^P25A mutant protein (Ctr1^P25A). Cells were incubated with cisplatin (200 μM for 2 h), or cisplatin plus the Cathepsin L inhibitor Z-FY(t-Bu)-DMK (10 μM) as indicated, harvested and cisplatin accumulation measured by ICP-MS and plotted on the Y-axis.

[4] = tested on: human Ctr1 containing the proline to alanine mutation at position 25 (Ctr1^P25A); assay: Ctr1 ectodomain cleavage, anti-Ctr1 immunoblot of Ctr1-/- MEFs stably transfected with human Ctr1 P25A (FIG. 5); assay type: cell-based; conditions: MEFs expressing Ctr1^P25A, inhibitor 10 μM, 16 hours, immunoblot (lane 4)
Method: (§6) Each of the above were either untreated (lanes 1 and 2), or treated with the Cathepsin L inhibitor Z-FY(tBu)-DMK (lanes 3 and 4). F=full-length, T=truncated.
(§7) Mouse embryonic fibroblasts from Ctr1^−/− embryos were stably transfected with the human Ctr1 and the human Ctr1 containing the proline to alanine mutation at position 25 (Ctr1^P25A). Cells were cultured in medium supplemented with 20% fetal bovine serum and treated with DMSO or 10 μM cysteine protease Cathepsin L, Z-FY(t-Bu)-DMK and harvested 16 hours later. Total proteins were isolated from the cells by homogenizing cells in ice cold PBS supplemented with 1% Triton-X, 0.1% SDS, and 1 mM EDTA. Cell debris was removed by centrifugation and the total amounts of soluble proteins were quantified in each sample. Equal amounts of proteins were separated on tris/glycine gradient gel, transferred to nitrocellulose membrane and blocked with 5% non-fat milk in Tris buffered saline supplemented with 0.05% Tween (TBST) for 1 h. Membranes were incubated with anti-Ctr1 antibody (1:1000) followed by anti-rabbit-HRP coupled antibody (1:5000) and bands detected by enhanced chemiluminescent substrate. Anti-Actin antibody was used as loading control.
(§8) Inhibition of the cysteine protease Cathepsin L, Z-FY(t-Bu)-DMK (10 μM) (lanes 3 and 4) results in an increased levels of the copper and cisplatin binding full length form of Ctr1. […]

human Ctr1 = assay: Ctr1 ectodomain cleavage, anti-Ctr1 immunoblot of Ctr1-/- MEFs stably transfected with human Ctr1 (FIG. 5); assay type: cell-based; conditions: MEFs expressing human Ctr1, inhibitor 10 μM, 16 hours, immunoblot (lane 3)
Method: as §6, §7, §8

[5] = tested on: Ctr1-/- MEFs expressing wild type Ctr1; assay: Cisplatin uptake/accumulation by ICP-MS in MEFs expressing wild type Ctr1 (FIG. 6); assay type: cell-based, mouse; conditions: inhibitor 10 μM over night, then cisplatin 200 μM for 2 h
Text: as §3, §4, §5

Chain of cathepsin L (P07711 114-333): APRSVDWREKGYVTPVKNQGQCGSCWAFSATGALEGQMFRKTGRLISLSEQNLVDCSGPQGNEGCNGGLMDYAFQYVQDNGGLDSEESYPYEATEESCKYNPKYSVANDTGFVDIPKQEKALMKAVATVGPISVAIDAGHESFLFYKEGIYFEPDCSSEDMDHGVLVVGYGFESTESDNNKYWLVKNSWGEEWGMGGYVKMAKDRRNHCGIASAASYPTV

SMILES: CCOC(=O)[C@H]1O[C@@H]1C(=O)N[C@@H](CC(C)C)C(=O)NCCC(C)C (relative stereo) [E64d, (2S,3S)-trans-Epoxysuccinyl-L-leucylamido-3-methylbutane ethyl ester]
- levels of cleaved Ctr1 [1]: dramatic reduction
- levels of cleaved Ctr1 ([2]; Cathepsin L knock out MEFs, E64d 10 μM, 16 hours): not
- full-length Ctr1 ([2]; Cathepsin L-/- MEFs treated with E64d vs not treated): increase

SMILES: CC(C)C[C@H](NC(=O)[C@H]1O[C@@H]1C(=O)O)C(=O)NCCCCN=C(N)N (relative stereo) [E-64, trans-Epoxysuccinyl-L-leucylamido(4-guanidino)butane]
- inhibition of papain (papain): inhibit
- inhibition of cathepsin L (cathepsin L): inhibit
- inhibition of cathepsin B (cathepsin B): inhibit
- inhibition of cathepsin H (cathepsin H): inhibit
- inhibition of calpain (calpain): inhibit

SMILES: CC(C)(C)Oc1ccc(CC(NC(=O)C(Cc2ccccc2)NC(=O)OCc2ccccc2)C(=O)C=[N+]=[N-])cc1 (stereo not drawn) [Z-FY(t-Bu)-DMK, benzyl (1-((1-(4-(tert-butoxy)phenyl)-4-diazo-3-oxobutan-2-yl)amino)-1-oxo-3-phenylpropan-2-yl)carbamate] (Cbz-Phe-Tyr(tBu)-CHN2; configuration not given here)
- cisplatin accumulation (platinum by ICP-MS, normalized to protein) [3]: enhanced
- levels of the copper and cisplatin binding full length form of Ctr1 [4]: increased
- levels of the copper and cisplatin binding full length form of Ctr1 (human Ctr1): increased
- cisplatin accumulation (platinum by ICP-MS, normalized to protein) [5]: enhanced
